The subject of test [1] is SK-OV-3. In words: […] of autophagy in human SKOV3 cells assessed as accumulation of p62 by immunofluorescence assay. The class given is functional, cell-based.
Test [2] can be described thus: Inhibition of UAE (unknown origin).
For test [3], the target named is T1, Ubiquitin-like modifier-activating enzyme ATG7 (Homo sapiens, UniProt O95352).
T1 sequence (O95352 whole entry): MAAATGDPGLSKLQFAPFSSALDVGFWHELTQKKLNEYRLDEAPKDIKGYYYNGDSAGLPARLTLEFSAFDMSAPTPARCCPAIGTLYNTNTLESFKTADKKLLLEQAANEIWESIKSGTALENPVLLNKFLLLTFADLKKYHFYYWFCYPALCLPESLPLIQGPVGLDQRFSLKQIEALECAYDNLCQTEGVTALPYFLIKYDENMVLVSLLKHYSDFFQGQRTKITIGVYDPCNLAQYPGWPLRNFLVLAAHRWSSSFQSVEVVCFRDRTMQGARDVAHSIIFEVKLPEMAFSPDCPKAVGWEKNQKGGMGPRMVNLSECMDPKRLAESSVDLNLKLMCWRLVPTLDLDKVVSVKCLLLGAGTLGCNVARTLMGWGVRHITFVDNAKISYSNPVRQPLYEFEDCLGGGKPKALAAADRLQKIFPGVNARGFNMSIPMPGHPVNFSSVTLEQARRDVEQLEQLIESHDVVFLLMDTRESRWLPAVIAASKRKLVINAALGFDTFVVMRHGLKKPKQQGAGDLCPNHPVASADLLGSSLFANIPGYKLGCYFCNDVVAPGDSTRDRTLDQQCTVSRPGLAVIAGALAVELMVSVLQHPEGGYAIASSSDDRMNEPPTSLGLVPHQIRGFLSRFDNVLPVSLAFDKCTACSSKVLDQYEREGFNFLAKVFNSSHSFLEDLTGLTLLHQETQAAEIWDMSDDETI
In words: Inhibition of ATG7 in human 293HEK cells assessed as inhibition of ATG7:ATG8 thioester formation after 4 hrs by Western blot analysis. Format: cell-based, HEK293. Background: Immunoblotting shows a protein as a band on a membrane.

A short description of test [4]: Inhibition of NAE (unknown origin).
The target of test [5] is T1, Ubiquitin-like modifier-activating enzyme ATG7. Put plainly: Inhibition of recombinant His-tagged human ATG7 incubated for 105 mins in presence of GST-tagged ATG3 and Flag-tagged Gabarap and measured after 2 hrs by FRET assay relative to control.
For another test, the system named is NCI-H1650. Put plainly: Antiproliferative activity against human H1650 cells assessed as reduction in cell viability after 72 hrs by cell titer glow assay. Format: cell-based. The note with it: NCI-H1650, 72 h. For orientation: ATP-based viability assays read luminescence as a measure of living cells.
A short description of test [6]: Inhibition of SAE (unknown origin).
The subject of test [7] is SK-OV-3. In words: […] of autophagy in human SKOV3 cells assessed as accumulation of NRB1 by immunofluorescence assay. The class given is functional, cell-based.
Test [8] can be described thus: […] of autophagy in human H4 cells assessed as decrease in LC3B spot area by immunofluorescence assay. The class given is functional, cell-based.
The target in test [9] is T1, Ubiquitin-like modifier-activating enzyme ATG7. Put plainly: Inhibition of ATG7 in human 293HEK cells assessed as inhibition of ATG7:ATG8 thioester formation after 8 hrs by Western blot analysis. Format: cell-based, HEK293.

Here are results for two compounds from ChEMBL document CHEMBL4725396, “Discovery and optimization of pyrazolopyrimidine sulfamates as ATG7 inhibitors” (Bioorg Med Chem, 2020).

Where only a bound is given, the exact number is not on record here.

One may read the EC50 as the midpoint of the concentration-response curve. By IC50 is commonly meant the concentration that inhibits the measured activity by half. On to `CSc1nn([C@H]2C[C@H](O)[C@@H](COS(N)(=O)=O)O2)c2ncnc(N)c12`, for which the EC50 with SK-OV-3 [1] was 3000 nM; in the test on NCI-H1650 it was 10.4 µM; in the test on SK-OV-3 [7], > 20 µM. For the same compound, the IC50 in test [2] was > 1000 nM; in test [3], 280 nM; in test [4], > 1000 nM; in test [5], 48 nM; in test [6], > 1000 nM; in test [8], 938 nM. Further, the IC50 in test [9] amounted to 86 nM.

In the case of `CCSc1nn([C@H]2C[C@H](O)[C@@H](COS(N)(=O)=O)O2)c2ncnc(N)c12`, the half-maximal effective concentration (EC50) in the test with SK-OV-3 [1] was 2300 nM; with NCI-H1650, > 50 µM; in the test on SK-OV-3 [7], > 20 µM. For the same compound, the IC50 in [2] is > 1000 nM; in test [3] it was 367 nM; in test [4], > 1000 nM; in test [5], 52 nM; in test [6], > 1000 nM; in test [8] it was 1360 nM.
